Common to all, as to type: functional
Test [1] concerns Enterococcus faecalis. Put plainly: Antibacterial activity against Enterococcus faecalis assessed as inhibition of bacterial growth by two-fold serial broth dilution method. In general terms: Dilution methods test growth across graded concentrations, often in twofold steps.
Test [2] has as its system Staphylococcus aureus. Put plainly: Antibacterial activity against Staphylococcus aureus assessed as inhibition of bacterial growth by two-fold serial broth dilution method.
Test [3] relates to Escherichia coli. The test can be described thus: Antibacterial activity against Escherichia coli assessed as inhibition of bacterial growth by two-fold serial broth dilution method.
The test system of test [4] is Acinetobacter calcoaceticus. The test can be described thus: Antibacterial activity against Acinetobacter calcoaceticus assessed as inhibition of bacterial growth by two-fold serial broth dilution method.
The test system of test [5] is Listeria. Put plainly: Antibacterial activity against Listeria sps. assessed as inhibition of bacterial growth by two-fold serial broth dilution method.
Test [6] relates to Bacillus subtilis. The test can be described thus: Antibacterial activity against Bacillus subtilis assessed as inhibition of bacterial growth by two-fold serial broth dilution method.
In test [7] the test system is Salmonella enterica. Put plainly: Antibacterial activity against Salmonella enterica assessed as inhibition of bacterial growth by two-fold serial broth dilution method.
Test [8] relates to Serratia marcescens. Put plainly: Antibacterial activity against Serratia marcescens assessed as inhibition of bacterial growth by two-fold serial broth dilution method.

≈ marks a conversion by molar mass, not a printed value. Calls of active or inactive are those of the source.

Broadly, the MIC is the smallest concentration in the dilution series that meets the test's criterion for growth inhibition.

Take `c1ccc(CNc2nc(NCc3ccccc3)nc(N3CCOCC3)n2)cc1`: the MIC was 400 µg/mL (≈ 1060 µM) in test [1], 200 µg/mL (≈ 531 µM) in test [2] and 200 µg/mL (≈ 531 µM) in test [4]. Moreover, the MIC entry in test [3], in test [5], in test [6], in test [7] and in test [8] was “inactive” each time.

As to `O=C1c2cccc3cccc(c23)C(=O)N1Nc1nc(NCc2ccc(F)cc2)nc(N2CCOCC2)n1`, the MIC in test [1] was 6.25 µg/mL (≈ 12.5 µM); in test [2] it was 25 µg/mL (≈ 50 µM); in test [3], 100 µg/mL (≈ 200 µM); in test [4] it was 100 µg/mL (≈ 200 µM); in test [5], 200 µg/mL (≈ 400 µM); in test [6] it was 100 µg/mL (≈ 200 µM). The minimal inhibitory concentration (MIC) in test [7] and in test [8] was 200 µg/mL (≈ 400 µM) each time.

Consider `CN(C)CCNc1nc(NN2C(=O)c3cccc4cccc(c34)C2=O)nc(N2CCOCC2)n1`, for which the MIC in test [1] was 200 µg/mL (≈ 432 µM); in test [2] it was 100 µg/mL (≈ 216 µM); in test [3], 200 µg/mL (≈ 432 µM); in test [4], 100 µg/mL (≈ 216 µM); in test [5] it was 50 µg/mL (≈ 108 µM); in test [6], 200 µg/mL (≈ 432 µM). The values for the MIC in test [7] and in test [8] were 100 µg/mL (≈ 216 µM) and 25 µg/mL (≈ 54.1 µM), respectively.

As to `Cc1ccc(CNc2nc(NN3C(=O)c4cccc5cccc(c45)C3=O)nc(N3CCOCC3)n2)cc1`, the MIC was 50 µg/mL (≈ 101 µM) in test [1]; 12.5 µg/mL (≈ 25.2 µM) in test [2]; 200 µg/mL (≈ 404 µM) in test [3]; 100 µg/mL (≈ 202 µM) in test [4]; 25 µg/mL (≈ 50.4 µM) in test [5]; 12.5 µg/mL (≈ 25.2 µM) in test [6]. In addition, the MIC in test [7] is 200 µg/mL (≈ 404 µM); in test [8], 100 µg/mL (≈ 202 µM).

On to `CN1CCN(c2nc(NN3C(=O)c4cccc5cccc(c45)C3=O)nc(N3CCOCC3)n2)CC1`, for which the minimal inhibitory concentration (MIC) in test [1] is 200 µg/mL (≈ 421 µM); in test [2] it was 1.56 µg/mL (≈ 3.29 µM); in test [3], 100 µg/mL (≈ 211 µM); in test [4] it was 200 µg/mL (≈ 421 µM); in test [5], 0.006 µg/mL (≈ 0.0126 µM); in test [6], 200 µg/mL (≈ 421 µM). In addition, the minimum inhibitory concentration (MIC) was determined as 200 µg/mL (≈ 421 µM) in test [7] and 12.5 µg/mL (≈ 26.3 µM) in test [8].

As to `O=C1c2cccc3cccc(c23)C(=O)N1Nc1nc(N2CCOCC2)nc(N2CCN(Cc3ccccc3)CC2)n1`, the MIC in test [1] was 200 µg/mL (≈ 363 µM); in test [2], 100 µg/mL (≈ 182 µM); in test [3], 200 µg/mL (≈ 363 µM); in test [4], 200 µg/mL (≈ 363 µM); in test [5] it was 6.25 µg/mL (≈ 11.4 µM); in test [6] it was 200 µg/mL (≈ 363 µM). Further, the minimum inhibitory concentration (MIC) in test [7] amounted to 200 µg/mL (≈ 363 µM); in test [8], 50 µg/mL (≈ 90.8 µM).

In the case of `COc1ccc(CNc2nc(NN3C(=O)c4cccc5cccc(c45)C3=O)nc(N3CCOCC3)n2)cc1`, the MIC in test [1] was 3.12 µg/mL (≈ 6.11 µM); in test [2] it was 6.25 µg/mL (≈ 12.2 µM); in test [3], 200 µg/mL (≈ 391 µM); in test [4] it was 100 µg/mL (≈ 195 µM); in test [5], 50 µg/mL (≈ 97.7 µM); in test [6], 12.5 µg/mL (≈ 24.4 µM). In addition, the MIC is 100 µg/mL (≈ 195 µM) in test [7] and 200 µg/mL (≈ 391 µM) in test [8].

Consider `O=C1c2cccc3cccc(c23)C(=O)N1Nc1nc(NC2CCCCC2)nc(N2CCOCC2)n1`, for which the minimum inhibitory concentration (MIC) in test [1] was 3.12 µg/mL (≈ 6.59 µM); in test [2], 100 µg/mL (≈ 211 µM); in test [3] it was 200 µg/mL (≈ 422 µM); in test [4] it was 200 µg/mL (≈ 422 µM); in test [5], 25 µg/mL (≈ 52.8 µM); in test [6], 50 µg/mL (≈ 106 µM). Besides, the minimum inhibitory concentration (MIC) in test [7] and in test [8] was 200 µg/mL (≈ 422 µM) each time.

Turning to `O=C1c2cccc3cccc(c23)C(=O)N1Nc1nc(Nc2ccc(F)cc2)nc(N2CCOCC2)n1`, the MIC is 200 µg/mL (≈ 412 µM) in test [1]; 50 µg/mL (≈ 103 µM) in test [2]; 400 µg/mL (≈ 824 µM) in test [3]; 200 µg/mL (≈ 412 µM) in test [4]; 200 µg/mL (≈ 412 µM) in test [6]; 200 µg/mL (≈ 412 µM) in test [7]. Moreover, the MIC in test [8] worked out at 200 µg/mL (≈ 412 µM). Besides, the MIC entry in test [5] was “inactive”.

With `N#Cc1ccc(CNc2nc(NN3C(=O)c4cccc5cccc(c45)C3=O)nc(N3CCOCC3)n2)cc1`, the MIC in test [1] is 100 µg/mL (≈ 197 µM); in test [2], 100 µg/mL (≈ 197 µM); in test [3], 200 µg/mL (≈ 395 µM); in test [4], 100 µg/mL (≈ 197 µM); in test [5], 200 µg/mL (≈ 395 µM); in test [6], 400 µg/mL (≈ 790 µM). Also, the figures for the MIC in test [7] and in test [8] were 400 µg/mL (≈ 790 µM) and 200 µg/mL (≈ 395 µM), respectively.

With `CCN(CC)CCNc1nc(NN2C(=O)c3cccc4cccc(c34)C2=O)nc(N2CCOCC2)n1`, the MIC was 200 µg/mL (≈ 408 µM) in test [1]; 100 µg/mL (≈ 204 µM) in test [2]; 200 µg/mL (≈ 408 µM) in test [3]; 200 µg/mL (≈ 408 µM) in test [4]; 0.19 µg/mL (≈ 0.387 µM) in test [5]; 50 µg/mL (≈ 102 µM) in test [6]. Also, the minimum inhibitory concentration (MIC) in test [7] stood at 200 µg/mL (≈ 408 µM); in test [8] it was 12.5 µg/mL (≈ 25.5 µM).

Regarding `CCN1CCN(c2nc(NN3C(=O)c4cccc5cccc(c45)C3=O)nc(N3CCOCC3)n2)CC1`, the MIC is 200 µg/mL (≈ 409 µM) in test [1]; 50 µg/mL (≈ 102 µM) in test [2]; 100 µg/mL (≈ 205 µM) in test [3]; 200 µg/mL (≈ 409 µM) in test [4]; 3.12 µg/mL (≈ 6.39 µM) in test [5]; 200 µg/mL (≈ 409 µM) in test [6]. The MIC in test [7] was determined as 200 µg/mL (≈ 409 µM); in test [8], 100 µg/mL (≈ 205 µM).

For `C=CCNc1nc(NN2C(=O)c3cccc4cccc(c34)C2=O)nc(N2CCOCC2)n1`, the minimum inhibitory concentration (MIC) in test [1] is 100 µg/mL (≈ 232 µM); in test [2], 25 µg/mL (≈ 57.9 µM); in test [3], 200 µg/mL (≈ 464 µM); in test [4] it was 100 µg/mL (≈ 232 µM); in test [5], 100 µg/mL (≈ 232 µM); in test [6] it was 50 µg/mL (≈ 116 µM). Besides, the MIC in test [7] and in test [8] was 200 µg/mL (≈ 464 µM) throughout.

In the case of `O=C1c2cccc3cccc(c23)C(=O)N1Nc1nc(N2CCCCC2)nc(N2CCOCC2)n1`, the MIC entry in test [1] was “inactive”. The minimum inhibitory concentration (MIC) is 1.56 µg/mL (≈ 3.39 µM) in test [2]; 400 µg/mL (≈ 870 µM) in test [3]; 200 µg/mL (≈ 435 µM) in test [4]; 50 µg/mL (≈ 109 µM) in test [5]; 6.25 µg/mL (≈ 13.6 µM) in test [6]; 200 µg/mL (≈ 435 µM) in test [7]. Further, the minimal inhibitory concentration (MIC) in test [8] came to 200 µg/mL (≈ 435 µM).

For the compound `CC1(C)S[C@@H]2[C@H](NC(=O)[C@H](N)c3ccc(O)cc3)C(=O)N2[C@H]1C(=O)O` [AMOXICILLIN], the minimal inhibitory concentration (MIC) in test [1] is 1.56 µg/mL (≈ 4.27 µM); in test [2] it was 25 µg/mL (≈ 68.4 µM); in test [3], 100 µg/mL (≈ 274 µM); in test [4], 50 µg/mL (≈ 137 µM); in test [5], 50 µg/mL (≈ 137 µM); in test [6], 50 µg/mL (≈ 137 µM). In addition, the MIC was 200 µg/mL (≈ 547 µM) in test [7] and 1.56 µg/mL (≈ 4.27 µM) in test [8].

With `O=C1c2cccc3cccc(c23)C(=O)N1Nc1nc(NCCN2CCOCC2)nc(N2CCOCC2)n1`, the MIC in test [1] was 200 µg/mL (≈ 396 µM); in test [2] it was 3.12 µg/mL (≈ 6.18 µM); in test [3], 100 µg/mL (≈ 198 µM); in test [4], 200 µg/mL (≈ 396 µM); in test [5] it was 0.048 µg/mL (≈ 0.0951 µM); in test [6], 200 µg/mL (≈ 396 µM). In addition, the values for the MIC in test [7] and in test [8] were 200 µg/mL (≈ 396 µM) and 50 µg/mL (≈ 99.1 µM), respectively.

Turning to `C#CCNc1nc(NN2C(=O)c3cccc4cccc(c34)C2=O)nc(N2CCOCC2)n1`, the minimal inhibitory concentration (MIC) in test [1] is 0.048 µg/mL (≈ 0.112 µM); in test [2], 50 µg/mL (≈ 116 µM); in test [3] it was 100 µg/mL (≈ 233 µM); in test [4], 200 µg/mL (≈ 466 µM); in test [5], 200 µg/mL (≈ 466 µM); in test [6], 25 µg/mL (≈ 58.2 µM). For the same compound, the MIC worked out at 100 µg/mL (≈ 233 µM) in test [7] and 200 µg/mL (≈ 466 µM) in test [8].

In the case of `O=C1c2cccc3cccc(c23)C(=O)N1Nc1nc(N2CCOCC2)nc(N2CCOCC2)n1`, the MIC in test [1] is 200 µg/mL (≈ 433 µM); in test [2] it was 1.56 µg/mL (≈ 3.38 µM); in test [3] it was 200 µg/mL (≈ 433 µM); in test [4] it was 200 µg/mL (≈ 433 µM); in test [5] it was 200 µg/mL (≈ 433 µM); in test [6], 100 µg/mL (≈ 217 µM). For the same compound, the MIC came to 100 µg/mL (≈ 217 µM) in test [7] and 200 µg/mL (≈ 433 µM) in test [8].

(Values after ChEMBL document CHEMBL5620398, “Membrane-active substituted triazines as antibacterial agents against Staphylococcus aureus with potential for low drug resistance and broad activity” (Eur J Med Chem, 2023).)
